Data taken from patent publication US8841073B2, “Methods for identifying RNA segments bound by RNA-binding proteins or ribonucleoprotein complexes” (The Rockefeller University, priority 2008, dated 2014).
[4sU] = 4-thiouridine

Tests used:
[1] = target: T1, FLAG/HA-tagged RBP IGF2BP1 (Homo sapiens, UniProt Q9NZI8); assay: UV 365 nm crosslinking of RNA to FLAG/HA-IGF2BP1 in cells cultured with photoreactive nucleoside (IP, 32P-labeling, SDS gel phosphorimaging); assay type: cell-based; conditions: 100 μM photoreactive nucleoside, 365 nm UV
T1 construct: expressed in transfected cells; host or cells: Flp-In T-REx HEK293 (Invitrogen), pFRT/TO/FLAG/HA-DEST, doxycycline-induced
Description: FIG. 1. PURE-CLIP methodology. A Structure of photoreactive nucleosides. B Incorporation of photoreactive nucleosides to enable UV 365 nm crosslinking of RNA to RNA-binding IGF2BP1 protein. Upper panels show phosphorimages of SDS protein gels resolving 5′-32P-labeled RNA-FLAG/HA-IGF2BP1 immunoprecipitates (IPs) prepared from lysates from cells that were cultured in media in the absence or presence of 100 μM photoreactive nucleoside for 12 hrs and crosslinked with 365 nm UV. For comparison, a sample prepared from cells crosslinked at 254 nm, was included. Lower panels show immunoblots probed with an anti-HA antibody confirming uniform gel loading. C Illustration of the method. […]
Incorporation of modified photoreactive nucleoside analogues into RNA facilitates UV crosslinking to RBPs (Meisenheimer and Koch, 1997), as shown previously for in vitro transcribed site-specifically labeled RNAs (Kirino and Mourelatos, 2008; Moore and Query, 1998). Several of these photoreactive nucleosides are excitable by longer wavelength UV (>300 nm) and are readily taken up by cells, where they are incorporated into nascent transcripts without noticeable toxicity and then can be used for in vivo crosslinking (Bezerra and Favre, 1990; Favre et al., 1986; Wagenmakers et al., 1980). […]

[2] = system: cells; conditions: exposure longer than 24 hrs in culture medium; cited from earlier work
[3] = target: T2, recombinant QKI protein (Homo sapiens, UniProt Q96PU8); assay: UV 365 nm crosslinking of synthetic 4SU-containing oligoribonucleotides to recombinant QKI; assay type: biochemical; conditions: 4SU at position 2 vs position 3 of the recognition element
T2 construct: His6 (N); made in house; host or cells: E. coli STAR(DE3)
T2 sequence (Q96PU8 1-319 isoform Q96PU8-9): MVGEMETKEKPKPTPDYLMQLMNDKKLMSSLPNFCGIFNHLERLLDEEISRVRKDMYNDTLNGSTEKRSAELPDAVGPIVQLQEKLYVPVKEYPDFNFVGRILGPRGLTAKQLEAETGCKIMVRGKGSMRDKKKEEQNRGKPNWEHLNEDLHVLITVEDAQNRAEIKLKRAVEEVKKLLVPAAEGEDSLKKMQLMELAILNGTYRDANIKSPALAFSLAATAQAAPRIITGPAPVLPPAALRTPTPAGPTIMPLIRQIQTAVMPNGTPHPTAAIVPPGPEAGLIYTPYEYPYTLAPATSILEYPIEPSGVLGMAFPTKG
Description: FIG. 3. RNA recognition sites of QKI protein. A Domain structure of QKI protein. B Phosphorimage of SDS polyacrylamide gel resolving radiolabeled RNA crosslinked to FLAG/HA-QKI IPs from non-irradiated or UV-irradiated 4SU-labeled cells. […] C Two alignments of PURE-CLIP cDNA sequence reads to the corresponding regions of the 3′UTRs of the Refseq CTNNB1 and HOXD13 transcripts, respectively. Red bars indicate the QKI recognition motif and red-letter nucleotides indicate T to C sequence changes. D Weblogo of the QKI recognition motif generated by PhyloGibbs analysis of the top 100 sequence read clusters. […] F Sequences of synthetic 4SU-labeled oligoribonucleotides with QKI recognition motifs, derived from a sequence read cluster aligning to the 3′UTR of HOXD13 (see c). […]
To better understand the […] sequence conversion after sequencing of crosslinked RNA segments, we subjected synthetic 4SU-containing oligoribonucleotides together with recombinant QKI to UV 365 nm crosslinking (FIGS. 3F, G). […] RNA-binding to recombinant QKI protein was unaffected by 4SU incorporation at U9 or U10 as determined by gel-shift analysis (FIG. 11A-B), whereas regular mutation of the recognition element weakened the binding (FIG. 11C). […]

[4] = target: T3, recombinant His6-QKI protein (Homo sapiens, UniProt Q96PU8); assay: Electrophoretic mobility shift assay (gel-shift) with recombinant QKI; assay type: binding
T3 construct: His6 (N); made in house; host or cells: E. coli STAR(DE3)
T3 sequence (Q96PU8 1-319 isoform Q96PU8-9): T2 sequence (Q96PU8 1-319 isoform Q96PU8-9)
Description: FIG. 11: Electrophoretic mobility shift assay (EMSA) to analyze binding of recombinant QKI to synthetic oligoribonucleotides with a sequence derived from a cluster identified by QKI PURE-CLIP. […] C Mutation of either one of the QKI binding sites (marked with red bars in the RNA-sequence) results in decreased affinity of QKI to the RNA. Mutation of both binding sites leads to complete loss of affinity of QKI to the RNA.
Radiolabeled RNA (1 nM) was incubated with recombinant His6-QKI protein at various concentrations and 100 ng tRNA in 20 μl of 20 mM HEPES-KOH, pH 7.4, 330 mM KCl, 10 mM MgCl2, 0.1 mM EDTA and 0.01% IGEPAL CA630 (Sigma). After addition of 6 μl loading dye (40% glycerol, bromophenol blue in binding buffer), the solution was loaded onto a native 10% acrylamide gel containing 0.5×TBE, running at 200 V for 2 h at room temperature, using 0.5×TBE as running buffer. The protein-bound RNA and the free RNA were quantified using a phosphorimager.

[5] = system: transcripts containing miR-7- or miR-124-specific CCRs; assay: miR-7 and miR-124 duplex transfection into HEK293 cells, mRNA stability by Affymetrix microarrays; assay type: cell-based, human; conditions: HEK293 cells stably expressing FLAG/HA-AGO2
Description: To allow for a comparison to such studies, we transfected miRNA duplexes corresponding to the deeply conserved miR-7 and miR-124 into HEK293 cells stably expressing FLAG/HA-AGO2 and performed PURE-CLIP. Before transfection, these miRNAs were only present in trace amounts in HEK293 cells, less than 0.2% of total miRNA abundance. We found 1,866 unique sequence read clusters in the miR-7 and 10,929 in the miR-124 transfection experiments. The CCRs isolated from miR-7 and miR-124 transfection experiments were enriched for the seed sequences of the transfected miRNA duplexes. These CCRs were predominantly exonic (87 and 88%, respectively), 28% mapped to the CDS, 57 and 59%, respectively, to the 3′UTR of mRNAs and only 3 and 2%, respectively, to the 5′UTR. miR-7 and miR-124 binding sites that were located in the CDS for miR-7 and -124 were also embedded in regions with unusual codon bias, similar to the binding sites of endogenous miRNA target sites (FIG. 31).
The change in mRNA stability was analyzed after miRNA duplex transfection by Affymetrix whole genome microarrays (Hausser et al., submitted). We observed that transcripts containing miR-7- or miR-124-specific CCRs were destabilized upon miRNA delivery, especially for transcripts with CCRs located in the 3′UTR (FIG. 32-33). […]

T1 sequence (Q9NZI8 whole entry): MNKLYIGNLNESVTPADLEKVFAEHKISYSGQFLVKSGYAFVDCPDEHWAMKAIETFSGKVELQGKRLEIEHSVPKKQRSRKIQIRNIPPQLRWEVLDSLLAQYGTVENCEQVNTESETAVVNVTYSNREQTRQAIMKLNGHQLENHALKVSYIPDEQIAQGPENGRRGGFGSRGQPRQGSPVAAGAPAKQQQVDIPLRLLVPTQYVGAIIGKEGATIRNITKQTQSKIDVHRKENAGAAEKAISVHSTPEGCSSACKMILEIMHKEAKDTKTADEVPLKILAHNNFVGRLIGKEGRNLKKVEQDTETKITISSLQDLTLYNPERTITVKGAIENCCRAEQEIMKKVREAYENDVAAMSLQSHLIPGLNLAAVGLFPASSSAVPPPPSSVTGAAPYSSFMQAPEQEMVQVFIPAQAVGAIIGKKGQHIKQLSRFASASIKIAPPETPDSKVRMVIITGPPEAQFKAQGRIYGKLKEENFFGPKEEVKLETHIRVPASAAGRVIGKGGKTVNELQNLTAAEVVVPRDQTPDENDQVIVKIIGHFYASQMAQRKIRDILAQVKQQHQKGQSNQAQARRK

O=c1[nH]c(=S)ccn1[C@@H]1O[C@H](CO)[C@@H](O)[C@H]1O [4SU, 4-thiouridine]
crosslinking efficiency of nucleoside-labeled RNA to IGF2BP1 [1]: crosslinked most efficiently

Nc1nc2c(ncn2[C@@H]2O[C@H](CO)[C@@H](O)[C@H]2O)c(=S)[nH]1 [6SG, 6-thioguanosine]
concentration above which cytotoxicity is noticeable [2]: above 100 μM

U9: synthetic oligoribonucleotide with 4SU at position 2 of the QKI recognition element; GUAUGCCA(4sU)AACAAAUUCAUUAACAA (SEQ ID NO: 30) (GUAUGCCAUAACAAAUUCAUUAACAA; RNA, [4sU] at 9, backbone not given here)
crosslinking efficiency to recombinant QKI relative to oligonucleotide U10 [3]: approximately 50 times | RNA-binding / affinity to recombinant QKI by gel-shift analysis [4]: unaffected

miR-7: transfected miRNA duplex, 5'-UGGAAGACUAGUGAUUUUGUUGU / 5'-CAACAAAUCACAGUCUGCCAUA (SEQ ID NO: 66, 67) (listed as RNA, chemistry not given here)
change in mRNA stability of CCR-containing transcripts after miRNA duplex transfection [5]: destabilized
